The source made the active and inactive calls.
Experiments:
Trypsin = Trypsin (Sus scrofa, UniProt P00761); assay: trypsin protease activity blockade – biochemical, quenched peptide fluorescence, cherry-pick, selectivity assay for Rce1 protease inhibitor project, dose response (AID 488789)
CAAX prenyl protease 2 = target: T1, CAAX prenyl protease 2 (Saccharomyces cerevisiae S288c, UniProt Q03530); type: biochemical
T1 sequence (Q03530 whole entry): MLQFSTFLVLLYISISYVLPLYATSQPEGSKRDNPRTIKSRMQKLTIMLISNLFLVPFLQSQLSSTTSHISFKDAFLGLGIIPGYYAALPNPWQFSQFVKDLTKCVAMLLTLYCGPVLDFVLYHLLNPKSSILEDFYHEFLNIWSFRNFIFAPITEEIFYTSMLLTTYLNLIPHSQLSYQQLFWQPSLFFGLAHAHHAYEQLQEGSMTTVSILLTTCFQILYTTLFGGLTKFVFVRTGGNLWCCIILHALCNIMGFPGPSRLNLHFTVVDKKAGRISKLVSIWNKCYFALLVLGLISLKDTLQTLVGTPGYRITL

[1] = target: Melanin-concentrating hormone receptor 1 (Homo sapiens, UniProt Q99705); assay: Fluorescence-based counterscreen for antagonists of the G-protein coupled receptor 7 (GPR7): cell-based high throughput dose response assay to identify antagonists of the melanin-concentrating hormone receptor 1 (MCHR1).; type: functional
[2] = target: T2, Neuropeptides B/W receptor type 1 (Homo sapiens, UniProt P48145); assay: Fluorescence-based dose response cell-based high throughput screening assay to identify antagonists of the G-protein coupled receptor 7 (GPR7). [Related pubchem assays: 1952 (Screening assay (GPR7 antagonists).), 1880 (Summary AID.)]; type: functional
T2 sequence (P48145 whole entry): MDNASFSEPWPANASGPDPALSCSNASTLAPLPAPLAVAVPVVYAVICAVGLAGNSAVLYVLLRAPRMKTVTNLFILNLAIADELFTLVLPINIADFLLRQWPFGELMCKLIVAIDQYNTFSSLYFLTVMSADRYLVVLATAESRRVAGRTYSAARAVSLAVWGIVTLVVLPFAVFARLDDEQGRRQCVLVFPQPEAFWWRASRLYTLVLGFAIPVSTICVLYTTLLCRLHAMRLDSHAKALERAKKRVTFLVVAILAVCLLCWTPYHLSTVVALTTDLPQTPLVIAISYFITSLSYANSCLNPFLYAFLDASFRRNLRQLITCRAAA

[3] = target: G-protein coupled receptor 55 (Homo sapiens, UniProt Q9Y2T6); assay: selective activators of receptor GPR55 – imaging, U2OS cells, beta-arrestin-GFP redistribution, primary screen (AID 1961); type: functional
SUMO-activating enzyme [4] = target: T3, SUMO-activating enzyme (Homo sapiens, UniProt Q9UBT2); assay: blockers of SAE1/SAE2–UBC9 SUMO transfer – biochemical, HTRF, uHTS, primary screen (AID 2006); type: protein-complex assay
T3 sequence (Q9UBE0 whole entry): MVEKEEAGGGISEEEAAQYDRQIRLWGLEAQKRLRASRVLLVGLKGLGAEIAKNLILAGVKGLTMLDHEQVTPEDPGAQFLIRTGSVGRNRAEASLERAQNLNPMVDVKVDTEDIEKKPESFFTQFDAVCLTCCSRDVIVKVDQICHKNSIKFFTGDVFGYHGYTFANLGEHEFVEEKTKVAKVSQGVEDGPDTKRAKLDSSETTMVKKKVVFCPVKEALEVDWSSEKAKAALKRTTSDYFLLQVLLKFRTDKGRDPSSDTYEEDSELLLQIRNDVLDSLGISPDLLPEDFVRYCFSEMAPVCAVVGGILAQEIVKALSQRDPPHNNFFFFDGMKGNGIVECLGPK
T3 sequence (Q9UBT2 whole entry): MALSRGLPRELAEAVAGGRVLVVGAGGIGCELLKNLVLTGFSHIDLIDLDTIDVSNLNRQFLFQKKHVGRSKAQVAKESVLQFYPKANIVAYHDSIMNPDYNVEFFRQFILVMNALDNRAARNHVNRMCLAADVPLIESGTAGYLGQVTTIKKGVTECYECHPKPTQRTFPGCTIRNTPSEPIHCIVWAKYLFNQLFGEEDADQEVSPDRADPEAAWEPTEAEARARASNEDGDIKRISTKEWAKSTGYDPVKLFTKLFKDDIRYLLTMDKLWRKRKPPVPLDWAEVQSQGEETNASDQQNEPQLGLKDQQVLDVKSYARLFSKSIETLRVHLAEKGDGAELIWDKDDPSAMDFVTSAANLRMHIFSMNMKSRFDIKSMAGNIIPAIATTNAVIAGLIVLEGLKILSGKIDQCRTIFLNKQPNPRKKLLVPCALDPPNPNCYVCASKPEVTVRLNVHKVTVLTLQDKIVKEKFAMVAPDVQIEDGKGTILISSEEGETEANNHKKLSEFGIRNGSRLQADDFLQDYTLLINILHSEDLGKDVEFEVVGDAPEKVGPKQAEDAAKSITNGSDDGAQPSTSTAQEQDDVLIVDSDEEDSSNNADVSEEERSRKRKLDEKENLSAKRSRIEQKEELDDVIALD

SUMO-activating enzyme [5] = target: T3, SUMO-activating enzyme; assay: blockers of UBC9-mediated SUMO conjugation – biochemical, AlphaScreen, SUMOylation inhibitor project, confirmation (AID 2018); type: functional
[6] = target: T4, RNA-binding protein pos-1 (Caenorhabditis elegans, UniProt G5EF15); assay: disruptors of C. elegans POS-1 RNA interaction – biochemical, fluorescence polarization, dose response (AID 1964);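 note: purified POS-1 fused to maltose binding protein made in E. coli; potency of compounds blocking POS-1 binding to fluorescent RNA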
T4 sequence (G5EF15 whole entry): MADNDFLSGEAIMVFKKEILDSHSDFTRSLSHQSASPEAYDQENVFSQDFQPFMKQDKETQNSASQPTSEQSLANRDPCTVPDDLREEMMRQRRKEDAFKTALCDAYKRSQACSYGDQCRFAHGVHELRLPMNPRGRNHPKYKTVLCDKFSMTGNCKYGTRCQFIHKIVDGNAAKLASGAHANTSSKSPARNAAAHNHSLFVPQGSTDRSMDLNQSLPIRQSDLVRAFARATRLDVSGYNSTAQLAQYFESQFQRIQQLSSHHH

[7] = target: T5, Zinc finger protein mex-5 (Caenorhabditis elegans, UniProt Q9XUB2); assay: potency of MEX-5 RNA-binding blockers – biochemical, C. elegans, fluorescence polarization, dose response (AID 1960)
T5 sequence (Q9XUB2 whole entry): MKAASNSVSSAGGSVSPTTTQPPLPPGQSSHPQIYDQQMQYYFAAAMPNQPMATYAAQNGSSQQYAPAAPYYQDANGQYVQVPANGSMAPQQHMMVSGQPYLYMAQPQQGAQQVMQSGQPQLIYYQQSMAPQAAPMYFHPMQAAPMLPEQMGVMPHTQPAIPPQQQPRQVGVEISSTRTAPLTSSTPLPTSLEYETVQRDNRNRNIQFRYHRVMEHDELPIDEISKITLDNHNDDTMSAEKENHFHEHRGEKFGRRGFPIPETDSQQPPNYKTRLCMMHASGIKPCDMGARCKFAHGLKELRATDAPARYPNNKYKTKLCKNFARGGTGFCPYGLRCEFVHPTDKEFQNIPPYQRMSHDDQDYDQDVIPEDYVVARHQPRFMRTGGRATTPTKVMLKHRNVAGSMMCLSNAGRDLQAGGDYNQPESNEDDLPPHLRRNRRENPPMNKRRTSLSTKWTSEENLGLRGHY

Cysteine protease ATG4B = target: T6, Cysteine protease ATG4B (Homo sapiens, UniProt Q9Y4P1); type: functional;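 note: Fluorescence-based dose-response confirmation assay measuring inhibition of ATG4B activity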
T6 sequence (Q9Y4P1 whole entry): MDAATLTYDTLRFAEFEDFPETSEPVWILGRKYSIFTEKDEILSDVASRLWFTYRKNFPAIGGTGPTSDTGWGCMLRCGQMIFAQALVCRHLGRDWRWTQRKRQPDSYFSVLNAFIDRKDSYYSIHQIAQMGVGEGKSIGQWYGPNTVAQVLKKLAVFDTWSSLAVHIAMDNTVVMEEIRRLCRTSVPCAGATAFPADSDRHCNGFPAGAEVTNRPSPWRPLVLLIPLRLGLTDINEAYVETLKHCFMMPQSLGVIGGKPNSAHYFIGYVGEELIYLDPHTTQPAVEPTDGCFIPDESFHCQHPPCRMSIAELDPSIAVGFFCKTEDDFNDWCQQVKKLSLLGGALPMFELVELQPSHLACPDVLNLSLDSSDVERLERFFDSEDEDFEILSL

[8] = target: T7, Carboxy-terminal domain RNA polymerase II polypeptide A small phosphatase 1 (Homo sapiens, UniProt Q9GZU7); assay: CTDSP1 inhibitors, concentration-response, biochemical, absorbance readout, ultra-high-throughput screen actives (AID 540297); type: functional
T7 sequence (Q9GZU7 whole entry): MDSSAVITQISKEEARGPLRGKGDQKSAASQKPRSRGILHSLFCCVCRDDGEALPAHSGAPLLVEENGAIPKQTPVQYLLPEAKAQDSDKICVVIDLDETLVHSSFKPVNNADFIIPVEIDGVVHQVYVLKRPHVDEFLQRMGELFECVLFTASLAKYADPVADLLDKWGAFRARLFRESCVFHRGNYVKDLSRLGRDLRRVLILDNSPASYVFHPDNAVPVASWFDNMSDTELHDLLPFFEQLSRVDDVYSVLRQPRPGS

Phospholipase A2 = Phospholipase A2 (Homo sapiens, UniProt P04054); type: functional;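 note: confirmatory dose-response counterscreen on phospholipase A2, testing hits that came from an ultra-high-throughput screen for ATG4B inhibitors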
Chain of Phospholipase A2 (P04054 whole entry): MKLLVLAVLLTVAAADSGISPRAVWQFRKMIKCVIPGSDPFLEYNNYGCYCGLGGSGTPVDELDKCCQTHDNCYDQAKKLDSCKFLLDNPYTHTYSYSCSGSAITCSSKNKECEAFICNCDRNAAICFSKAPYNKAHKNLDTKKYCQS

Caspase-6 = target: T8, Caspase-6 (Homo sapiens, UniProt P55212); assay: inhibition of CASP6 peptide cleavage – biochemical, VEID-R110 fluorescence, cherry-pick, dose response (AID 720632)
T8 sequence (P55212 whole entry): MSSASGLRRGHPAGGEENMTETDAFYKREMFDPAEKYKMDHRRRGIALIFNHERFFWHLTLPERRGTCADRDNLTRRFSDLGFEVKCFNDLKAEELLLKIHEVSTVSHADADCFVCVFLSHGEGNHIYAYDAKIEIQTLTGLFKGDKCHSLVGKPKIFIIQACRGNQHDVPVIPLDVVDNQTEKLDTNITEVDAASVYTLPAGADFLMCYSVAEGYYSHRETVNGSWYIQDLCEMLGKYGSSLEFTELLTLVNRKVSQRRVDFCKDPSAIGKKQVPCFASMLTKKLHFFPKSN

[9] = target: DNA (cytosine-5)-methyltransferase 1 (Homo sapiens, UniProt P26358); assay: inhibition of DNA methylation by DNMT1 – biochemical, fluorescent molecular beacon, confirmation (AID 602386); type: functional
Chain of DNA (cytosine-5)-methyltransferase 1 (P26358 whole entry): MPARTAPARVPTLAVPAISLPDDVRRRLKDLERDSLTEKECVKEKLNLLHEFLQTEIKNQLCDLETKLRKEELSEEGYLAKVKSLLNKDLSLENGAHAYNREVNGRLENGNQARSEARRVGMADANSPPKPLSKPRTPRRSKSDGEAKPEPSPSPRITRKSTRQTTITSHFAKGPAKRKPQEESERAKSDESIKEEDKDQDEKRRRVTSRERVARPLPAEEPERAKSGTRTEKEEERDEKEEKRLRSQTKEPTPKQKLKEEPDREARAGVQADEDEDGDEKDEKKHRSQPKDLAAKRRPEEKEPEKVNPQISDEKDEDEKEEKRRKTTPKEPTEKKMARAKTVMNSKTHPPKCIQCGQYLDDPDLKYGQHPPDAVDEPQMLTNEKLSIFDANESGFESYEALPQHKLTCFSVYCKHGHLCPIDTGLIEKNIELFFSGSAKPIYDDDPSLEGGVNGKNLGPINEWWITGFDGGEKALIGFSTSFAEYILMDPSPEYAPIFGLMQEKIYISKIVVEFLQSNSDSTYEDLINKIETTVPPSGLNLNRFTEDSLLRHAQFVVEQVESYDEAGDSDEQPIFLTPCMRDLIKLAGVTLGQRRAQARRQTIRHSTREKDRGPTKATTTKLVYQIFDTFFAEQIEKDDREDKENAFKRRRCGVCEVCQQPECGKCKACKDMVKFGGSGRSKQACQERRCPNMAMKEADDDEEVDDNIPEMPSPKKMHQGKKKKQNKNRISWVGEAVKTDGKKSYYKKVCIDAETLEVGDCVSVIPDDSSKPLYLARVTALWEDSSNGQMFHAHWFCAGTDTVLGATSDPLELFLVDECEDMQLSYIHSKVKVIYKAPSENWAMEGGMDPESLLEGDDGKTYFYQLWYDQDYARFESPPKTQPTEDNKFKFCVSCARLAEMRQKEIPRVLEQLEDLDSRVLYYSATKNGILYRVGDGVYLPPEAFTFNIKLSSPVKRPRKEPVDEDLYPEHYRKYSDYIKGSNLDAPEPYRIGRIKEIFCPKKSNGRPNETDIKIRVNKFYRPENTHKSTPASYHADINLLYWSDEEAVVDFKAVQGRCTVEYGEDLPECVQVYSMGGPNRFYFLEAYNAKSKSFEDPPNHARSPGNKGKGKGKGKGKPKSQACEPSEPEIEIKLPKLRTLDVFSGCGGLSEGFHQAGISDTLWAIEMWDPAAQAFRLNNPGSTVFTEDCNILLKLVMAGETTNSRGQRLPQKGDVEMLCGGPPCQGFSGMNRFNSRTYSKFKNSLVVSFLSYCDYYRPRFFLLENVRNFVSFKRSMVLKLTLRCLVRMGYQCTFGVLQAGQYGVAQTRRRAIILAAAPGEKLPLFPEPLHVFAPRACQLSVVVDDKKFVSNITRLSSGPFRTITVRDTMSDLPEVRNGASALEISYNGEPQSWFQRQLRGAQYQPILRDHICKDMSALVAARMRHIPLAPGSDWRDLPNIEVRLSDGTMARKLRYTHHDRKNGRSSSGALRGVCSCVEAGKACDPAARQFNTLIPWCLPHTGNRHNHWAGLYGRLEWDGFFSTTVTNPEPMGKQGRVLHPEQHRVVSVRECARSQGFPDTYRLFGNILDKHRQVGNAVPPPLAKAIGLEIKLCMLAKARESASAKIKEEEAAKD

ORF 73 = ORF 73 (Human herpesvirus 8, UniProt O40947); assay: KSHV LANA DNA-binding disruption – biochemical, fluorescence polarization, cherry-picked samples, dose response (AID 504725); parameters: species or system Human gammaherpesvirus 8;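 note: fluorescence polarization of a labeled DNA duplex reporting LANA DNA binding; potency is for inhibitors that block LANA binding to the DNA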
Large T antigen = Large T antigen (Simian virus 40, UniProt P03070); type: functional, Betapolyomavirus macacae;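 note: Confirmatory-stage PubChem screen for compounds that inhibit SV40 T antigen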
[10] = target: Induced myeloid leukemia cell differentiation protein Mcl-1 (Homo sapiens, UniProt Q07820); type: functional
Chain of Induced myeloid leukemia cell differentiation protein Mcl-1 (Q07820 whole entry): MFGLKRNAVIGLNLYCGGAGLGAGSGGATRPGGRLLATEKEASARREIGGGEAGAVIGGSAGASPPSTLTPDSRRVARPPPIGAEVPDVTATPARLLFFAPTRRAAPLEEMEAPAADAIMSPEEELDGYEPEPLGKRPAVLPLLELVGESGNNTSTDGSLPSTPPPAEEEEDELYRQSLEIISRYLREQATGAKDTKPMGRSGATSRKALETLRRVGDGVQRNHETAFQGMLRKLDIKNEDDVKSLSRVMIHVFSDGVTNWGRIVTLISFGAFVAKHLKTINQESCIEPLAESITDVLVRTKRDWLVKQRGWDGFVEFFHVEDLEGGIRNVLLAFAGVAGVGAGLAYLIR

[11] = target: T9, Dual specificity protein phosphatase 6 (Rattus norvegicus, UniProt Q64346); type: functional;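 note: confirmatory in vitro dose-response testing of MKP-3 inhibition; recombinant His-tagged MKP-3 made in E. coli BL21 with OMFP substrate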
T9 sequence (Q64346 whole entry): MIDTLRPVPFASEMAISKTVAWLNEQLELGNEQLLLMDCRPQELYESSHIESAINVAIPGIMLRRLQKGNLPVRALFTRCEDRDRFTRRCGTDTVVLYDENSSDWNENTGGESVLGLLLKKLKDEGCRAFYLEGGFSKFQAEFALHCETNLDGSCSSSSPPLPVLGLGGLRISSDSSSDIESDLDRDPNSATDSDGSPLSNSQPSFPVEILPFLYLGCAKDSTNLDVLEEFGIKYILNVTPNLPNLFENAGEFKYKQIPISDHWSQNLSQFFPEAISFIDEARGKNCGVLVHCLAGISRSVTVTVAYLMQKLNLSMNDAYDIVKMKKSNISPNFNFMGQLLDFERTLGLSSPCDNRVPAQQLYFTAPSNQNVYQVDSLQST

[12] = target: T10, Tyrosine-protein phosphatase non-receptor type 7 (Homo sapiens, UniProt P35236); assay: redox-active compounds inhibiting HePTP phosphatase – biochemical, fluorescence, mechanism study (AID 2068); type: functional
T10 sequence (P35236 whole entry): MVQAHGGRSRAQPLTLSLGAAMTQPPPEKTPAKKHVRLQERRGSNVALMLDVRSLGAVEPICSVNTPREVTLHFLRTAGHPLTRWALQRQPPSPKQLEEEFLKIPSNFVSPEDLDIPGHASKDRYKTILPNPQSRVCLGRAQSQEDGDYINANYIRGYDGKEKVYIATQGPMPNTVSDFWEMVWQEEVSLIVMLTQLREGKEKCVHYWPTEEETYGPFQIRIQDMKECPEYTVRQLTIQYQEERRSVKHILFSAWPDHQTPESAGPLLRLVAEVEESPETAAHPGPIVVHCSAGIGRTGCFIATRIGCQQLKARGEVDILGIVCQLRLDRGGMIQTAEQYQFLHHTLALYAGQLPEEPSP

[13] = target: T11, Kappa-type opioid receptor (Homo sapiens, UniProt P41145); assay: SAR analysis of Antagonists of the Kappa Opioid Receptor (KOR) using an Image-Based Assay - Set 4. [Related pubchem assays (depositor defined):AID1777, AID1785]; type: functional
T11 sequence (P41145 whole entry): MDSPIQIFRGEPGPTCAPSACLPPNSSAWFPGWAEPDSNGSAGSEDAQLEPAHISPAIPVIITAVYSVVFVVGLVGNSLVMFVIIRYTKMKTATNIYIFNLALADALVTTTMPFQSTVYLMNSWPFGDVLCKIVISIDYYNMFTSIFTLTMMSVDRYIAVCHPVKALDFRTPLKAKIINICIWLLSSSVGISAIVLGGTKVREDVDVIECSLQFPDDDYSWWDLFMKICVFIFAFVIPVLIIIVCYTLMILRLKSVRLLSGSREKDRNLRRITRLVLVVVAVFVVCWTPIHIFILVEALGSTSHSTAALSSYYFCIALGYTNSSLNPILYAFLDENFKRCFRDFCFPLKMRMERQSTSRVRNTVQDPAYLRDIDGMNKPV

Mu-type opioid receptor = Mu-type opioid receptor (Homo sapiens, UniProt P35372); assay: SAR Analysis of Antagonists of the MOR Receptor using an Image-Based Assay - Set 3. [Related pubchem assays (depositor defined):AID1777, AID1785, AID1786, AID1966, AID2133, AID2136, AID2284, AID2285, AID2420]; type: functional
Chain of Mu-type opioid receptor (P35372 whole entry): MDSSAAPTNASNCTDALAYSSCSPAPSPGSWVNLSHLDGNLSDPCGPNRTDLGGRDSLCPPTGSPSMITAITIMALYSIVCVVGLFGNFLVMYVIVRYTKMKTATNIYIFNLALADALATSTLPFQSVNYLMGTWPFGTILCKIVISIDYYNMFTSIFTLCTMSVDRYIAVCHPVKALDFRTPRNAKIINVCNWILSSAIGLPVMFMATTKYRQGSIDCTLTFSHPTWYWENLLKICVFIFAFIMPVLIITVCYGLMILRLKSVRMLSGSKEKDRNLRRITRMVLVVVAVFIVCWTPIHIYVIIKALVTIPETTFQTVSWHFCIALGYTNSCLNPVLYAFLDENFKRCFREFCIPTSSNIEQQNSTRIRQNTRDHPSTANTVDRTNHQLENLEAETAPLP

[14] = target: T11, Kappa-type opioid receptor; assay: SAR analysis of small molecule antagonists of the kappa opioid receptor via a luminescent beta-arrestin assay - Set 4. [Related pubchem assays (depositor defined):AID1777, AID1778, AID1785, AID1786, AID1966, AID2133, AID2136, AID2285]; type: functional
[15] = target: Delta-type opioid receptor (Homo sapiens, UniProt P41143); assay: SAR Analysis of Antagonists of the DOR Receptor using an Image-Based Assay - Set 3. [Related pubchem assays (depositor defined):AID1777, AID1785]; type: functional;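 note: U2OS cells expressing DOR1 and beta-arrestin GFP stimulated with 100 nM SNC80; imaging of GFP-tagged beta-arrestin moving into spots after receptor activation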
Chain of Delta-type opioid receptor (P41143 whole entry): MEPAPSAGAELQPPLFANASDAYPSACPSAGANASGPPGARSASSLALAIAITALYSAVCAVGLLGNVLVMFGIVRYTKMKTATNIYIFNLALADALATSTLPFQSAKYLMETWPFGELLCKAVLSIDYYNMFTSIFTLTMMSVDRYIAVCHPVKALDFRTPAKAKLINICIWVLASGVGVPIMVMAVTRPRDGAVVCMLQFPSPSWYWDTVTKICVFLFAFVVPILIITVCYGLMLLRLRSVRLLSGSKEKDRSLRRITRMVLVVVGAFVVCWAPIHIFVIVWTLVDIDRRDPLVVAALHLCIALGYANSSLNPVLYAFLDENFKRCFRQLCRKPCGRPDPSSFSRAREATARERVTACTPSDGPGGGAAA

Hexokinase = Hexokinase (Trypanosoma brucei, UniProt Q38C41); assay: Confirmation assay for inhibitors of Trypanosoma brucei hexokinase 1-Analogue-first series. [Related pubchem assays (depositor defined):AID1430, AID1632, AID2516, AID2560, AID2579, AID2600, AID449725, AID492951]; type: functional
Chain of Hexokinase (Q38C41 whole entry): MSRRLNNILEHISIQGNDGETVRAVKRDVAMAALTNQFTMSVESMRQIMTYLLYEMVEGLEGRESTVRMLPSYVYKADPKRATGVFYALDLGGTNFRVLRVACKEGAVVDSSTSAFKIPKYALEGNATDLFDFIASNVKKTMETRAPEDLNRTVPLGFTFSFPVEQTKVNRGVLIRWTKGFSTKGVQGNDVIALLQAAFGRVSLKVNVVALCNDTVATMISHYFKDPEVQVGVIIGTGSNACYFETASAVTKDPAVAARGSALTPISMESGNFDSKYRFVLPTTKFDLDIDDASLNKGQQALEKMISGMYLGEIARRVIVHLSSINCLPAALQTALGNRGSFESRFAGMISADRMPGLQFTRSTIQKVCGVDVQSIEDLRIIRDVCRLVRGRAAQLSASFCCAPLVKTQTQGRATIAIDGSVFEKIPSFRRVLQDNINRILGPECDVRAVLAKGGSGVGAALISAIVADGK

Chain of Trypsin (P00761 whole entry): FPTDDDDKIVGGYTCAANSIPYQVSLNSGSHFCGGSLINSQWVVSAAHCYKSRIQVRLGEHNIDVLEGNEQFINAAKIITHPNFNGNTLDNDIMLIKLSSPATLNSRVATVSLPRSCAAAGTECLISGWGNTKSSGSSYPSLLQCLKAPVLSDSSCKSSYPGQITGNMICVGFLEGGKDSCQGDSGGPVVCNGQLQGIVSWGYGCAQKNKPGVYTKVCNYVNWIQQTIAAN

O=C(NCCc1cccnc1)c1cc(COc2ccc(F)cc2Cl)on1
AC50 (Trypsin): 8.75 µM (active) | AC50 (CAAX prenyl protease 2): 10.7 µM (active)

Cc1cc(C)n2cc(CSCC(=O)O)nc2n1
AC50 (Trypsin): 12 µM (active) | AC50 (CAAX prenyl protease 2): 12.1 µM (active)

Cc1ccc(Cl)cc1N1CCN(C(=O)c2ccc3c(c2)CCN3S(C)(=O)=O)CC1
IC50 [1]: 16.9 µM (not active) | IC50 [2]: 23.5 µM (not active) | EC50 [3]: 21 µM (inactive)

Cc1ccccc1NC(=O)CN1C(=O)S/C(=C\c2ccc(-c3cc(C(=O)O)ccc3C)o2)C1=O
IC50 (SUMO-activating enzyme [4]): 9.45 µM (active) | IC50 (SUMO-activating enzyme [5]): 2.85 µM (active) | EC50 [6]: 2.41 µM (active) | EC50 [7]: 1.68 µM (active) | IC50 (Cysteine protease ATG4B): 2.05 µM (active) | IC50 [8]: 1.44 µM (active) | IC50 (Phospholipase A2): 1.77 µM (active)

O=C(O)Cc1c[nH]c2cccc(O)c12
AC50 (Caspase-6): 11.1 µM (active) | IC50 [9]: 6.74 µM (active) | AC50 (ORF 73): 22.1 µM (active) | IC50 (Large T antigen): 23.1 µM (active) | IC50 [10]: 4.87 µM (active)

COc1cc(C(=S)NC(C)(C)C)ccc1O
IC50 [11]: > 100 µM (inactive) | IC50 [12]: 13.1 µM (active)

COc1ccc(N2CCN(CCNC(=O)Cn3c(=O)c4cccn4c4c(C)ccnc43)CC2)cc1
IC50 [13]: > 32 µM (inactive) | IC50 (Mu-type opioid receptor): > 32 µM (inactive) | IC50 [14]: 14.1 µM (inactive) | IC50 [15]: > 32 µM (inactive)

COc1cccc(CC(=O)Nc2cc(Cl)ccc2C(=O)O)c1
IC50 (Hexokinase): > 25 µM (inactive)

CCC(CC)NC(=S)c1ccc(O)c(OC)c1
IC50 [11]: > 100 µM (inactive) | IC50 [12]: 0.766 µM (active)

O=C(Cn1sc2ccccc2c1=O)Nc1ccccc1C(F)(F)F
IC50 (Hexokinase): > 25 µM (inactive)

CCC(C)c1ccc(S(=O)(=O)NCc2ccc(C(=O)NCCN(Cc3ccccc3)C(C)C)cc2)cc1 (stereo not drawn)
IC50 [13]: 2.01 µM (active) | IC50 (Mu-type opioid receptor): > 32 µM (inactive) | IC50 [14]: 1.6 µM (active) | IC50 [15]: > 32 µM (inactive)
